Assays:
[1] = tested on: SK-MEL-5 BRAF (V600E) melanoma cells; experiment: Co-culture of stroma (WI-38 or HS-5) and cancer cells; type: cell-based, human
Description: SK-MEL-5 BRAF (V600E) melanoma cells were co-cultured with the lung-derived stromal cell line WI-38 or with the bone marrow-derived stromal cell line HS-5 with or without vemurafenib (4 μM). […] Vehicle—DMSO, EGFRi—gefitinib (0.1 μM), EGFRi/HER2i—lapatinib (10 nM), METi—crizotinib (0.1 μM), FGFRi—AZD4547 (50 nM), NFkB/TNFRi—CAPE (10 μM), TGFBRi-LY2109761 (0.5 μM), gp130i—SC144 (1 nM). […] Error bars represent standard error. […] Error bars represent standard error. […] Human BRAF (V600E) melanoma cell lines UACC62 or G361 were used to generate xenograft tumor models in various tissues of nude mice. When tumors reached a volume of 500-700 μmm^3, they were resected, sliced, and cultured ex-vivo in the presence of different drug combinations or DMSO control. Following 4 days of drug treatment, slices were fixed, embedded in paraffin blocks, and subjected to immunohistochemistry, using anti-pERK antibody, or to immuno-fluorescence, using anti-pFGFR1 antibody. BRAFi (vemurafenib, 4 μM), FGFRi (AZD4547, 2 μM). Scale bar represents 50 μm.
Four hours later, the melanoma BRAF (V600E) mutated cell line SK-MEL-5 was seeded on top of the stromal cells at a concentration of 1700 cells per well, or seeded without stroma. […] Concentrations of the inhibitors were based on dose curves with SK-MEL-5. For each inhibitor of potential mechanism of resistance, the maximal concentration with minimal effect (toxicity) on cell growth was selected (Cmax).
To compare rScore value of stroma-mediated resistance with or without a given inhibitor, the rScore values of each inhibitor in the presence of stroma, was calculated. As a reduction in rScore may stem from mere toxicity of the inhibitor, rather than the abrogation of the stroma mediated resistance, each inhibitor rScore was penalized by its toxicity.
rScoreinhibitor=rScoreinhibitor+(rScorestroma−rScoreinhibitor)*tOxicitY(Cmax)inhibitor

[2] = tested on: UACC62 melanoma BRAF (V600E) cell line; experiment: Human and mouse factor mediated resistance to vemurafenib in vitro; type: cell-based; details: for factor-mediated resistance to vemurafenib: FGF2 25 ng/ml
Description: P-value of the rScore abrogation following the addition of FGFRi was calculated by two-sided t-test. ** P<0.01.

[3] = tested on: BRAF (V600E) melanoma cell lines; experiment: High-throughput secretome screen of GFP-labeled cells (rScore, bScore, ranks); type: cell-based, human; details: for effect on resistance to BRAF/MEK inhibition (rScore sorted, 297 factors): UACC62 cell line
Description: Cell lines—All cell lines (Table 1 hereinbelow) were cultured in DMEM supplemented with 100 units/ml Penicillin and Streptomycin, 2 μmM Glutamine, 1 μmM Pyruvate and 10% FCS, and maintained in a humidified incubator at 37° C. and 5% CO2. Cells were routinely tested for Mycoplasma contamination by PCR. To generate stable cell lines constitutively expressing GFP, cells were infected with lentivirus bearing plasmid pLEX_TRC206 and sorted by FACS to enrich for GFP positive population. For the in-vitro experiments, human cancer cell lines which constitutively expressed GFP were treated with various cytotoxic and targeted drugs (see Table 1 hereinbelow); and the effect of different secreted factors (Table 2 hereinbelow) on the innate resistance to a drug based on the cells' GFP level was determined.
High throughput in-vitro screens—For high-throughput screens or drug dose curves, cells were counted by Vi-Cell XR (Beckman coulter). Cells were seeded on 384 wells plates (Corning, 3712) using the EL406 washer dispenser (BioTek). Liquid handling of medium and drugs was effected by CyBi (WellFlex vario, CyBio). GFP fluorescence of cells was measured at 477/517 nm (excitation/emission) using Cytation3 (BioTek). Due to fluorescence reading bias at plate margins and corners, these margins were discarded for analysis.
High-throughput secretome screens—To screen for the effect of secreted factors on the response of cell lines to different drugs, the following seven-days procedure was performed. On day 0, GFP expressing cells were seeded at 1500-2000 cells per well on 384-wells plates (Corning, 3712), depending on the cell line's proliferation rate. Each plate was seeded with one cell line. At day 1, each plate was treated with the secretome library (Table 2 hereinabove), one well per factor. Immediately afterwards, each plate was treated either with a drug (Table 1 hereinabove) at the EC90 concentration or with DMSO control. The CyBi liquid handler was used to treat each plate with a drug and the secretome library as well as to replace the medium, drug and secreted factors following 3 days of incubation (day 4). Cell fluorescence was read at days 1, 4 and 7 by Cytation3, and for some of the experiments at day 6 as well. Wells of interest were imaged at day 7 using the Operetta (PerkinElmer).
(2) Based on observations, the plate area spanning rows 4-13 and columns 4-21 was hardly affected by plate margins biases. This area is referred to herein as plate core. To control for row specific and column specific biases, plate outliers (Zscore>4 or Zscore<−4) and edges were masked. Next, to capture row and column (col) biases for the i-th row and the j-th column, the bias factor was calculated:
Upon QC completion, 199 experiment plates and 79 control (DMSO) plates were left for further analysis. • 4—Scoring methods-A GFP value for wells without secretome factors was obtained by averaging over the plate internal control wells. Those wells contained the solvents used in the secretome library. pScore: The effect of the secreted factors on proliferation under DMSO was evaluated using pScore (proliferation score). Values were given in percent units.
rScore: The effect of the secreted factors on resistance to anti-cancer drugs was evaluated using rScore (rescue score). rScore was assigned to a given factor under two conditions: • 1. drug effect was >30% (residual drug growth<0.7) • 2. proliferation ratio between factor treated and untreated cells in the presence of drug was higher than one:
rSscore=S−S*residual drug growth
Based on manual inspection of the rScore distribution across the data, the threshold for a potential effect on drug resistance was set to 0.2 (FIGS. 8A-D).
(*) Negative values were considered as zero. […] Groups with less than 4 experiments were discarded, finally resulting in 13 groups of experiments (FIG. 1E). […]

human NSCLC tumor biopsy = experiment: EVOC of NSCLC patient biopsies, viability; type: cell-based; details: treatment-naïve patient; osimertinib 4 μM alone
From the text: Error bars represent standard error. […] Scale bar represents 50 μm. […] Error bars represent standard error. […] Scale bar represents 50 μm.
Scale bar represents 50 μm. […] Scale bar represents 50 μm. […] Scale bar represents 50 μm.

[4] = vemurafenib 2 μM, mTNF 50 ng/ml
[5] = 80 experiments of BRAF (V600E) mutated melanoma cell lines treated with BRAF/MEK inhibitors
[6] = 80 experiments of BRAF (V600E) mutated melanoma cell lines treated with BRAF/MEK inhibitors, in multiple experiments

Q: `CCCS(=O)(=O)Nc1ccc(F)c(C(=O)c2c[nH]c3ncc(-c4ccc(Cl)cc4)cc23)c1F` [vemurafenib] was tested. Which “rScore of stroma-conferred resistance” value ([1]; co-culture with bone-marrow derived stromal cell line HS-5) did it give?
A: > 0.2

Q: What about the “rScore of stroma-conferred resistance” value ([1]; co-culture with lung-derived stromal cell line WI-38) of the same molecule?
A: > 0.2

Q: For `FC(F)(F)c1nnc2c(Sc3ccccc3)nc3ccc(Cl)cc3n12` [R7050, reference compound], which “toxicity to UACC62” value ([2]; all concentrations tested) is on record?
A: not toxic

Q: What about the “abrogation of mouse TNF mediated resistance” value ([2]; vemurafenib 2 μM, mTNF 50 ng/ml, range of concentrations) of the same molecule?
A: does not abrogate the mouse TNF mediated resistance

Q: Which “factor-mediated resistance to vemurafenib” value [2, 4] does the source give for “FGF2: human FGF2, recombinant secreted factor, FGFR ligand” here?
A: mediated resistance to vemurafenib

Q: And the “rank by rScore values (resistance)” value [3, 5]?
A: 3

Q: What about the rScore [3, 6] of the same molecule?
A: above 0.2

Q: And the “effect on resistance to BRAF/MEK inhibition (rScore sorted, 297 factors)” value [3]?
A: strongest effect on resistance

Q: Which cancer cell viability (human NSCLC tumor biopsy) does the source give for `C=CC(=O)Nc1cc(Nc2nccc(-c3cn(C)c4ccccc34)n2)c(OC)cc1N(C)CCN(C)C` [osimertinib] here?
A: did not affect cancer cell viability

B1: LTA: lymphotoxin alpha (protein, UniProt P01374 35-205, looked up)
Lymphotoxin-alpha: LPGVGLTPSAAQTARQHPKMHLAHSTLKPAAHLIGDPSKQNSLLWRANTDRAFLQDGFSLSNNSLLVPTSGIYFVYSQVVFSGKAYSPKATSSPLYLAHEVQLFSSQYPFHVPLLSSQKMVYPGLQEPWLHSMYHGAAFQLTQGDQLSTHTDGIPHLVLSPSTVFFGAFAL
Q: How did the “effect on resistance to BRAF/MEK inhibition (rScore sorted, 297 factors)” value [3] turn out when B1 was run?
A: strongest effect on resistance

B2: IL1A: secreted factor of the secretome library (protein, UniProt P01583 113-271, looked up)
Interleukin-1 alpha: SAPFSFLSNVKYNFMRIIKYEFILNDALNQSIIRANDQYLTAAALHNLDEAVKFDMGAYKSSKDDAKITVILRISKTQLYVTAQDEDQPVLLKEMPEIPKTITGSETNLLFFWETHGTKNYFTSVAHPNLFIATKQDYWVCLAGGPPSITDFQILENQA
Q: With B2 as the molecule, how does the “effect on resistance to BRAF/MEK inhibition (rScore sorted, 297 factors)” value [3] read?
A: strongest effect on resistance

B3: CCL4: secreted factor of the secretome library (protein, UniProt P13236 24-92, looked up)
C-C motif chemokine 4: APMGSDPPTACCFSYTARKLPRNFVVDYYETSSLCSQPAVVFQTKRSKQVCADPSESWVQEYVYDLELN
Q: B3 was tested. Which “effect on resistance to BRAF/MEK inhibition (rScore sorted, 297 factors)” value [3] did it give?
A: strongest effect on resistance

B4: ACHE: acetylcholinesterase (protein, UniProt P22303 32-614, looked up)
Acetylcholinesterase: EGREDAELLVTVRGGRLRGIRLKTPGGPVSAFLGIPFAEPPMGPRRFLPPEPKQPWSGVVDATTFQSVCYQYVDTLYPGFEGTEMWNPNRELSEDCLYLNVWTPYPRPTSPTPVLVWIYGGGFYSGASSLDVYDGRFLVQAERTVLVSMNYRVGAFGFLALPGSREAPGNVGLLDQRLALQWVQENVAAFGGDPTSVTLFGESAGAASVGMHLLSPPSRGLFHRAVLQSGAPNGPWATVGMGEARRRATQLAHLVGCPPGGTGGNDTELVACLRTRPAQVLVNHEWHVLPQESVFRFSFVPVVDGDFLSDTPEALINAGDFHGLQVLVGVVKDEGSYFLVYGAPGFSKDNESLISRAEFLAGVRVGVPQVSDLAAEAVVLHYTDWLHPEDPARLREALSDVVGDHNVVCPVAQLAGRLAAQGARVYAYVFEHRASTLSWPLWMGVPHGYEIEFIFGIPLDPSRNYTAEEKIFAQRLMRYWANFARTGDPNEPRDPKAPQWPPYTAGAQQYVSLDLRPLEVRRGLRAQACAFWNRFLPKLLSATDTLDEAERQWKAEFHRWSSYMVHWKNQFDHYSKQDRCSDL
Q: With B4 as the molecule, how does the “synergism with BRAF and MEK inhibition” value ([3]; multiple melanoma cell lines) read?
A: synergistic effect

B5: mFGF2: mouse FGF2 (protein, UniProt P15655 10-154, looked up)
Fibroblast growth factor 2: PALPEDGGAAFPPGHFKDPKRLYCKNGGFFLRIHPDGRVDGVREKSDPHVKLQLQAEERGVVSIKGVCANRYLAMKEDGRLLASKCVTEECFFFERLESNNYNTYRSRKYSSWYVALKRTGQYKLGSKTGPGQKAILFLPMSAKS
Q: B5 was tested. Which “factor-mediated resistance to vemurafenib” value [2, 4] did it give?
A: mediated resistance to vemurafenib

B6: TGFB3: Transforming Growth Factor Beta 3 (protein, UniProt P10600 301-412, looked up)
Transforming growth factor …: ALDTNYCFRNLEENCCVRPLYIDFRQDLGWKWVHEPKGYYANFCSGPCPYLRSADTTHSTVLGLYNTLNPEASASPCCVPQDLEPLTILYYVGRTPKVEQLSNMVVKSCKCS
Q: For B6, which “rank by bScore values (synergism)” value [3, 5] is on record?
A: −3

Q: What about the bScore [3, 6] of the same molecule?
A: below −0.15

From patent publication US20240133870A1, “COMBINED TREATMENT FOR CANCER” (Yeda Research and Development Co. Ltd., priority 2021, published 2024)
